Measurements taken from patent publication US5707615A, “Method of treating HIV infections with anti-viral formulations” (Merrell Pharmaceuticals Inc., priority 1997, dated 1998).

Legend:
HIV (Strain RF) = assay: Anti-HIV activity in C8166 cells infected with HIV strain RF: syncytia and p24 (Example VI); format: cell-based; conditions: for p24 % of VIRUS CONTROL: 2880 min
Experimental: Protocol: C8166 cells were infected with HIV (Strain RF) for 1 hour at room temperature to give a multiplicity of infection of approximately 0.01 infectious units per cell.

HIV (Strain GB8) = assay: JM cells infected with HIV strain GB8: syncytia and p24 (Example VII); format: cell-based; conditions: for p24 3 days p.i.: supernatant screened at 1/100 dilution
Experimental: JM cells were infected with HIV (Strain GB8) to give approximately 200 syncytia/1×10^5 cells after 3 days; virus infection was for 1 hour at room temperature.

| Substance | p24 Day 2 (HIV (Strain RF); 12 μg/ml) | p24 % of VIRUS CONTROL (HIV (Strain RF); 12 μg/ml) [%] | p24 Day 2 (HIV (Strain RF); 25 μg/ml) | p24 % of VIRUS CONTROL (HIV (Strain RF); 25 μg/ml) [%] | p24 Day 2 (HIV (Strain RF); 50 μg/ml) | p24 % of VIRUS CONTROL (HIV (Strain RF); 50 μg/ml) [%] | p24 Day 2 (HIV (Strain RF); 100 μg/ml) | p24 % of VIRUS CONTROL (HIV (Strain RF); 100 μg/ml) [%] | MEAN SYNCYTIA 3 days p.i. (HIV (Strain GB8); 25 μg/ml) | p24 3 days p.i. (HIV (Strain GB8); 25 μg/ml) | MEAN SYNCYTIA 3 days p.i. (HIV (Strain GB8); 50 μg/ml) | p24 3 days p.i. (HIV (Strain GB8); 50 μg/ml) | MEAN SYNCYTIA 3 days p.i. (HIV (Strain GB8); 100 μg/ml) | p24 3 days p.i. (HIV (Strain GB8); 100 μg/ml) | MEAN SYNCYTIA 3 days p.i. (HIV (Strain GB8); 200 μg/ml) | p24 3 days p.i. (HIV (Strain GB8); 200 μg/ml) | SYNCYTIA Day 2 (HIV (Strain RF); 50 μg/ml) | SYNCYTIA Day 2 (HIV (Strain RF); 100 μg/ml) |
| --- | --- | --- | --- | --- | --- | --- | --- | --- | --- | --- | --- | --- | --- | --- | --- | --- | --- | --- |
| poly[oxy(2,5-disulfo-1,4-phenylene)oxycarbonyl-1,4-phenylenecarbonyl]- [Example 7] | 3140 pg/mL | 98 | 1450 pg/mL | 45 | 870 pg/mL | 27 | neg | 0 | 43 | neg | 24 | neg | 7 | neg | 0 | neg | – | – |
| poly[oxy(2,5-disulfo-1,4-phenylene)oxycarbonyl], alpha-[(4-methylphenoxy)carbonyl]-omega-(4-methylphenoxy)- [Example 4] | 3050 pg/mL | 95 | 4820 pg/mL | 100 | 2820 pg/mL | 88 | 1930 pg/mL | 60 | 95 | 6500 pg/mL | 64 | neg | Toxic | – | Toxic | – | – | – |
| poly{oxy[2,2'-disulfo(1,1'-biphenyl)-4,4'-diyl]oxy-carbonyl-1,4-phenylenecarbonyl}- [Example 6] | neg | 0 | neg | 0 | neg | 0 | neg | 0 | 25 | 6800 pg/mL | 12 | neg | 0 | neg | 0 | – | 0 | 0 |
| poly{oxy[2,2'-disulfo(1,1'-biphenyl)-4,4'-diyl]oxy-carbonyl}, alpha-[(4-methylphenoxy)carbonyl]-omega-(4-methylphenoxy)- [Example 5] | 3250 pg/mL | 100 | 2320 pg/mL | 73 | 2780 pg/mL | 87 | 1060 pg/mL | 33 | > 200 | 67 pg/mL | 68 | neg | 22 | neg | 14 | neg | – | – |
